Test results: patent US7148029B2, “Immunoassay for neonicotinyl insecticides” (Syngenta Crop Protection, Inc., priority 1999, dated 2006)

Tests used:
[1] = test system: polyclonal antibody of the thiamethoxam immunoassay; test: Cross reactivity of the thiamethoxam immunoassay (competitive enzyme immunoassay in antibody-coated tubes); format: binding; design: key to Percent Reactivity Relative to Thiamethoxam: NR, non-reactive; conditions: for Percent Reactivity Relative to Thiamethoxam: test substances in 1% methanol/water, 1000 to 0.01 ng/ml
Procedure: The antibody-coated polystyrene culture tubes are labeled and placed in the tube rack such that the first and last tubes are standards and the remaining standards and samples are mixed. Sample and standard solutions (0.50-ml) are added to the corresponding tubes. A similar volume of enzyme conjugate solution is added. The rack is gently shaken to mix the solutions and set to incubate for 20 min at room temperature. The contents of all tubes are removed by inverting the rack over a stainless steel pan. Each tube is washed to overflowing with distilled water. The rack is inverted over the sink to dump the wash water. Washing is repeated four times. Then the rack is inverted and tapped gently on a paper towel to remove most of the remaining wash. […] The rack is gently shaken at 2.5 min intervals to ensure the enzyme maintains an ample supply of substrate. Generation of the blue colored signal is terminated by addition of acidic stop solution (0.50-ml). The absorbance of the solution in each tube is measured spectrophotometrically at 450 nm.
The concentration of analyte in the samples is determined from a regression function in the form of y=m ln(x)+b.
The cross reactivity, or specificity, of the immunoassay is evaluated to determine if other test substances found in seed coatings would interfere with measurement of thiamethoxam. Test substances are dissolved in 1% methanol/water to concentrations ranging from 1000 to 0.01 ng/ml. Aliquots of each concentration are analyzed as described above. The reactivity of each test substance over this range is determined as previously described in Brady, J. F; Turner, J.; Skinner, D. H. “Application of a triasulfuron enzyme immunoassay to the analysis of incurred residues in soil and water samples.” J. Agric. Food Chem. 1995, 43:2542–2547.

[2] = test system: polyclonal antibody of the thiamethoxam immunoassay; test: Typical standard curve for the thiamethoxam immunoassay; format: binding
Procedure: A portion of the seed extract is diluted into 1% MeOH/H2O until the expected concentration of thiamethoxam is brought within range of the calibration curve, 0.5 to 120 parts per billion. Antibody-coated tubes are labeled and placed in a tube rack such that the first and last tubes are standards and the remaining standards and samples are intermixed. The tube rack grips each tube such that the rack may be inverted without loss of the tubes. An aliquot of a standard or sample (0.5 mL) is added to all corresponding tubes. Enzyme conjugate solution (0.5 mL) is added to all tubes. The rack is shaken gently to mix the contents of all tubes. Tubes are incubated for 20 min at room temperature. The rack is inverted to decant the contents of all tubes. Distilled H2O is added to all tubes to overflowing using a flip-top wash bottle and the wash is decanted. Tubes are washed an additional three times. After the final wash, the rack is inverted and the tubes are gently tapped upon a clean paper towel to remove excess wash. Enzyme substrate (0.5 mL) is added to all tubes which are incubated for 10 min at room temperature. The rack is shaken gently every 2.5 min during this incubation. Acidic stop solution (1 M HCl, 0.5 mL) is added to all tubes to terminate signal generation. […] The absorbances of the standards are used to construct a calibration curve, a regression function in the form of […]. The absorbance of each sample is inserted into the function to determine the concentration of the neonicotinoid pesticide in the diluted sample. The resulting concentration is multiplied by the dilution factor to calculate the amount of neonicotinoid pesticide in the original sample. The function describing the response of the thiamethoxam standards is generated by regression analysis.

**Q.** `O=C1C2CC=CCC2C(=O)N1SC(Cl)(Cl)Cl` (stereo not drawn) [Captan] was tested. Which “Percent Reactivity Relative to Thiamethoxam” value [1] did it give?
**A.** NR

**Q.** `CC1=C(C(=O)Nc2ccccc2)SCCO1` [Carboxin] was tested. Which “Percent Reactivity Relative to Thiamethoxam” value [1] did it give?
**A.** NR

**Q.** For `CCOP(=S)(OCC)Oc1nc(Cl)c(Cl)cc1Cl` [Chlorpyrifos], which “Percent Reactivity Relative to Thiamethoxam” value [1] is on record?
**A.** NR

**Q.** With `CN/C(=N\[N+](=O)[O-])NCc1cnc(Cl)s1` [Clothiadin] as the compound, how does the “Percent Reactivity Relative to Thiamethoxam” value [1] read?
**A.** <1.0%

**Q.** `CC1COC(Cn2cncn2)(c2ccc(Oc3ccc(Cl)cc3)cc2Cl)O1` (stereo not drawn) [Difenoconazole] was tested. Which “Percent Reactivity Relative to Thiamethoxam” value [1] did it give?
**A.** NR

**Q.** Which “Percent Reactivity Relative to Thiamethoxam” value [1] does the source give for `N#Cc1c[nH]cc1-c1cccc2c1OC(F)(F)O2` [Fludioxonil] here?
**A.** NR

**Q.** How did the “Percent Reactivity Relative to Thiamethoxam” value [1] turn out when `FC(F)(F)C(=NOCC1OCCO1)c1ccc(Cl)cc1` [Fluxofenim] was run?
**A.** NR

**Q.** With `O=[N+]([O-])NC1=NCCN1Cc1ccc(Cl)nc1` [Imidacloprid] as the compound, how does the “Percent Reactivity Relative to Thiamethoxam” value [1] read?
**A.** ^2NR

**Q.** `COCC(=O)N(c1c(C)cccc1C)[C@H](C)C(=O)OC` [Mefenoxam (R-Metalaxyl), Mefenoxam] was tested. Which “Percent Reactivity Relative to Thiamethoxam” value [1] did it give?
**A.** NR

**Q.** `COCC(=O)N(c1c(C)cccc1C)C(C)C(=O)OC` (stereo not drawn) [Metalaxyl] was tested. Which “Percent Reactivity Relative to Thiamethoxam” value [1] did it give?
**A.** NR

**Q.** For `O=[N+]([O-])c1c(Cl)c(Cl)c(Cl)c(Cl)c1Cl` [Pentachloronitrobenzene], which “Percent Reactivity Relative to Thiamethoxam” value [1] is on record?
**A.** NR

**Q.** For `CCN(CC)c1nc(C)cc(OP(=S)(OC)OC)n1` [Primifos-methyl], which “Percent Reactivity Relative to Thiamethoxam” value [1] is on record?
**A.** NR

**Q.** Which “Percent Reactivity Relative to Thiamethoxam” value [1] does the source give for `CCCCC(C#N)(Cn1cncn1)c1ccc(Cl)cc1` (stereo not drawn) [Systhane (Myclobutanil), Myclobutanil] here?
**A.** NR

**Q.** For `N#CSCSc1nc2ccccc2s1` [TCMTB], which “Percent Reactivity Relative to Thiamethoxam” value [1] is on record?
**A.** NR

**Q.** How did the “reactivity with the immunoassay (in words)” value ([1]; among the test substances analyzed) turn out when `CN1COCN(Cc2cnc(Cl)s2)/C1=N\[N+](=O)[O-]` [Thiamethoxam] was run?
**A.** significantly reactive

**Q.** What about the “Percent Reactivity Relative to Thiamethoxam” value [1] of the same compound?
**A.** 100%

**Q.** And the “Absorbance at 450 nm (Analytical response)” value (“Absorbance at 450 nm” for short) ([2]; Concentration of Thiamethoxam 0.5 Parts Per Billion)?
**A.** 1.3618

**Q.** And the “Absorbance at 450 nm” value ([2]; Concentration of Thiamethoxam 3 Parts Per Billion)?
**A.** 1.0283

**Q.** And the “Absorbance at 450 nm” value ([2]; Concentration of Thiamethoxam 20 Parts Per Billion)?
**A.** 0.6636

**Q.** What about the “Absorbance at 450 nm” value ([2]; Concentration of Thiamethoxam 120 Parts Per Billion) of the same compound?
**A.** 0.3145

**Q.** `COC(=O)NC(=S)Nc1ccccc1NC(=S)NC(=O)OC` [Thiophanate-methyl] was tested. Which “Percent Reactivity Relative to Thiamethoxam” value [1] did it give?
**A.** NR
